Source: patent US12611406B2, “Oxopiperazine derivatives for the treatment of cancer” (Inthera Bioscience AG, priority 2020, dated 2026)
Like-named read-outs stand apart in the source and are kept apart here.

Key:
p300 = assay: Western blot of p53 acetylated by p300 on K382 in LNCaP cells; format: cell-based
Description: Top panel: Cell cycle distribution in LNCap cells treated with siRNA (2 bars on the right) in comparison to control LNCaP cells without siRNA treatment (2 bars in the middle), in the absence (−) or presence (+) of Compound 1 for 24 h at the indicated concentration. For comparison, DU-145 cells harboring a combined Rb1 and p53 loss-of-function are included (2 bars on the left). Lower panel: Western blot analysis according to the same experimental conditions as given for the top panel.

NCI-H82 = assay: γH2A.X Western blot (DNA damage biomarker); format: cell-based; settings: 20 or 200 nM, 24 h
Description: (§1) Cell cycle phase distribution in control (C) cells or cells treated at 20 or 200 nM Compound 1 for 24 hours (24 h) determined by fluorescence activated cell sorting (FACS) analysis, and detection of histone H2A variant H2A.X phosphorylation (γH2A.X, also referred to herein as gamma H2A.X or γH2A.X) by Western blot as DNA damage biomarker.
(§2) The observed accumulation of DNA damage upon tumor cell exposure to Compound 1, measured as an increase of the DNA damage biomarker γH2A.X (FIG. 3A), is in line with reports of p300/CBP being involved in DNA replication and DNA damage repair (DDR). […] Among these DDR proteins are ATR (ataxia telangiectasia and Rad3-related), which controls crucial cell cycle and repair checkpoints, but also nibrin (NBS1), and poly(ADP-ribose) polymerase 1 (PARP-1).
(§3) In FIG. 3A, protein amounts were normalized using total protein load with ImageLab 6.0 Software (BioRad).

DU-145 = assay: γH2A.X Western blot (DNA damage biomarker); format: cell-based; settings: 20 or 200 nM, 24 h
Description: as §1, §2, §3

NCI-H69 [1] = assay: γH2A.X Western blot (DNA damage biomarker); format: cell-based; settings: 20 or 200 nM, 24 h
Description: as §1, §2, §3

[2] = Single dose oral gavage or intravenous PK in female cynomolgus monkeys, plasma; format: in vivo; settings: for clearance / Vd / AUC(0-inf) / AUC(0-t) / Cmax / Tmax / half-life: female, cynomolgus monkey, plasma; for clearance: read-out: cleared (Cl), mean rate (converted); for Vd: read-out: mean volume of distribution (Vz)
Description: The objective of the study was to determine the PK profile of Compound 1 following a single oral gavage or intravenous injection administration on 5 different occasions to female cynomolgus monkeys.
Compound 1, was administered as consecutive single doses on 5 occasions, separated by a washout period, by either oral gavage (4 and 12 mg/kg, Days 1 and 8) or by slow bolus intravenous (IV) injection (0.2 and 0.6 mg/kg, Days 15 and 22) to a group of female monkeys. In a subset of dosing the influence of grapefruit juice was evaluated (Day 34). Each single dose (Days 1, 8, 15, 22, and 34) was separated by a 7-day washout period. Blood samples were collected on Days 1, 8, 15, 22 and 34 at selected time points, i.e., 15 min, 30 min, as well as 1, 2, 4, 6, 8, and 24 hours relative to treatment for analysis of the concentration of Compound 1 in plasma and subsequent calculation of PK parameters. Additional parameters monitored included mortality, clinical observations and body weight.

[3] = 5-day daily oral repeated-dose pilot study in Beagle dogs (mesylate salt); format: in vivo; settings: for Tmax / Cmax / half-life: both sexes, Beagle, dog, plasma, po
Description: The objective of the study was to determine the TK profile of Compound 1, following its daily administration through oral gavage for 5 consecutive days to Beagle dogs. Compound 1 (mesylate salt) was administered daily to groups of dogs (n=2/sex/group) by oral gavage (PO) for 5 consecutive days at doses of 1.5 and 2 mg/kg/day. The vehicle was 0.5% (w/v) methylcellulose in sterile water. For TK evaluation blood samples were collected from each dog on Days 1 and 5 at the following timepoints relative to dosing: pre-dose, 15 min, 30 min, as well as 1, 2, 4, 6, 8, 12, and 24 hours post-dose.

SNU-5 = SNU-5 gastric cancer CDX mouse model; format: in vivo; settings: for Tumor growth inhibition: p <0.001
Description: Left panel: Tumor growth curves. Right panel: Body weight development. […] QD: once daily treatment; po: per os.
Left panel: Tumor growth curves. Right panel: Body weight development. […] QW: once weekly treatment. p.o.: per oral.
Compound 1 (3 mg/kg) was administered orally to the gastric cancer CDX model of SNU-5 cells (FIG. 8C), which harbor a loss-of-function of p53 and mutations in the CDKN2A gene loci, the latter controlling the Rb and p53 pathways.
Values larger than 100% indicate tumor regression.

NCI-H69 [4] = assay: NCI-H69 small cell lung cancer CDX mouse model; settings: for Tumor growth inhibition: p <0.001
Description: The 30 mg/kg group was given initially QW at 30 mg/kg and from day 31 onwards was given once weekly at 60 mg/kg, as indicated.
In Table 2, tumor growth inhibition (TGI) calculations are based on additional growth of tumors, i.e., tumor sizes on the day of TGI estimation minus tumor sizes at the start of treatment are used for calculations. Values larger than 100% indicate tumor regression. […] The total daily dose of 60 mg/kg was administered as *single dose or given as **30 mg/kg BID (twice daily).

[5] = once weekly 15 mg/kg/day, 7 weeks

With `CC(C)C[C@@H]1NCCN([C@@H](CC(C)C)C(=O)N2CCC3(C[C@@H]2C)OCC(CN2CCCC2)CO3)C1=O` (stereo partly drawn) [Compound 1, (S)-3-isobutyl-1-((S)-4-methyl-1-((S)-8-methyl-3-(pyrrolidin-1-ylmethyl)-1,5-dioxa-9-azaspiro[5.5]undecan-9-yl)-1-oxopentan-2-yl)piperazin-2-one] the “amount of p53 acetylated by p300 on K382” value (p300; control LNCaP cells) was “increased”, the “HAT/KAT activity of p300” value (p300; inferred from p53 K382 acetylation) was “not inhibited” and the “DNA damage marker γH2A.X” value (NCI-H82) was “accumulation of the DNA damage marker γH2A.X”. For the same compound, the “DNA damage marker γH2A.X” value (DU-145) was “accumulation of the DNA damage marker γH2A.X”, the “DNA damage marker γH2A.X” value (NCI-H69 [1]) was “accumulation of the DNA damage marker γH2A.X” and the clearance ([2]; Day 15 (IV 0.2 mg/kg)) was 43.2 mL/min/kg. For the same compound, the Vd ([2]; Day 15 (IV 0.2 mg/kg)) was 17.4 ± 2.2 L/kg, the clearance ([2]; Day 22 (IV 0.6 mg/kg)) was 41 mL/min/kg and the Vd ([2]; Day 22 (IV 0.6 mg/kg)) was 16.9 ± 1.91 L/kg. It also gave an AUC(0-inf) ([2]; IV 0.2 mg/kg) of 77.4 ng·h/mL, an AUC(0-t) ([2]; IV 0.2 mg/kg) of 76.2 ng·h/mL and a Cmax ([2]; IV 0.2 mg/kg) of 47.6 ng/mL. For the same compound, the Tmax ([2]; IV 0.2 mg/kg) was 0.08 h, the half-life ([2]; IV 0.2 mg/kg) was 4.64 h and the AUC(0-inf) ([2]; IV 0.6 mg/kg) was 244 ng·h/mL. It also gave an AUC(0-t) ([2]; IV 0.6 mg/kg) of 240 ng·h/mL, a Cmax ([2]; IV 0.6 mg/kg) of 162 ng/mL and a Tmax ([2]; IV 0.6 mg/kg) of 0.08 h. It also gave a half-life ([2]; IV 0.6 mg/kg) of 4.74 h, an AUC(0-inf) ([2]; po 4 mg/kg) of 17.3 ng·h/mL and an AUC(0-t) ([2]; po 4 mg/kg) of 16.9 ng·h/mL. For the same compound, the Cmax ([2]; po 4 mg/kg) was 5.52 ng/mL, the Tmax ([2]; po 4 mg/kg) was 0.5 h and the half-life ([2]; po 4 mg/kg) was 4.7 h. It also gave an AUC(0-inf) ([2]; po 12 mg/kg) of 133 ng·h/mL, an AUC(0-t) ([2]; po 12 mg/kg) of 130 ng·h/mL and a Cmax ([2]; po 12 mg/kg) of 53.6 ng/mL. The Tmax ([2]; po 12 mg/kg) was 0.83 h, the half-life ([2]; po 12 mg/kg) was 5.46 h and the clinical signs ([2]; intravenous doses up to 0.6 mg/kg) was “decrease in appetite”. The clinical signs ([2]; single oral doses up to 12 mg/kg) was “did not result in any adverse clinical signs”, the “Cmax increase with grapefruit juice prior to dosing” value ([2]; vs animals without grapefruit juice, Day 34) was 2 fold and the “Total AUC (AUC(0-inf))” value ([3]; 1.5 mg/kg, Day 1) was 116 ng·h/mL. For the same compound, the “Total AUC (AUC(0-inf))” value ([3]; 1.5 mg/kg, Day 5) was 213 ng·h/mL, the “Total AUC” value ([3]; 2 mg/kg, Day 1) was 173 ng·h/mL and the “Total AUC” value ([3]; 2 mg/kg, Day 5) was 270 ng·h/mL. It also gave a Tmax ([3]; 1.5 mg/kg) of ~0.5 h, a Cmax ([3]; 1.5 mg/kg, Day 1) of 25.4 ng/mL and a half-life ([3]; 1.5 mg/kg, Day 1, read-out: elimination half-life (converted)) of 4.5 h. For the same compound, the Cmax ([3]; 1.5 mg/kg, Day 5) was 44.6 ng/mL, the half-life ([3]; 1.5 mg/kg, Day 5, read-out: elimination half-life (converted)) was 6.2 h and the Cmax ([3]; 2 mg/kg, Day 1) was 33.6 ng/mL. For the same compound, the Tmax ([3]; 2 mg/kg, Day 1) was ~0.4 h, the half-life ([3]; 2 mg/kg, Day 1, read-out: T1/2 (converted)) was 4.7 h and the Cmax ([3]; 2 mg/kg, Day 5) was 32.3 ng/mL. For the same compound, the Tmax ([3]; 2 mg/kg, Day 5) was ~2.1 h, the half-life ([3]; 2 mg/kg, Day 5, read-out: T1/2 (converted)) was 8.6 h and the tolerability ([3]; daily oral for 5 consecutive days at 1.5 mg/kg/day) was “well-tolerated”. The “anti-tumor efficacy, every other week vs daily” value (SNU-5; 3 mg/kg oral) was “comparable anti-tumor efficacies”, the tumor growth (SNU-5; 30 mg/kg once every seven days for 7 weeks) was “almost complete inhibition of tumor growth” and the Tumor growth inhibition (SNU-5; [5]) was 62% (<0.001)/. The Tumor growth inhibition (SNU-5; once weekly 30 mg/kg/day, 7 weeks) was 91% (<0.001)/, the Tumor growth inhibition (SNU-5; once weekly 60 mg/kg/day as 30 mg/kg BID, 5 weeks) was 98% (<0.001)/**5 weeks and the body weight (NCI-H69 [4]; 3 mg/kg oral daily continuous) was “slight body weight loss”. The tumor response (NCI-H69 [4]; 3 mg/kg oral daily continuous) was “regressions of tumors”, the tolerability (NCI-H69 [4]; 3 mg/kg oral every other week) was “well tolerated” and the “anti-tumor activity, every other week vs daily” value (NCI-H69 [4]; 3 mg/kg oral, every other week compared to same dose daily) was “almost the same anti-tumor growth activity”. For the same compound, the “anti-tumor activity, once weekly vs daily” value (NCI-H69 [4]; 30 mg/kg once every seven days, 60 mg/kg weeks 4 to 7, compared to 3 mg/kg daily) was “same anti-tumor growth activity”, the body weight (NCI-H69 [4]; intermittent (once weekly) dosing) was “did not cause significant body weight decreases” and the Tumor growth inhibition (NCI-H69 [4]; [5]) was 58% (<0.001)/. The Tumor growth inhibition (NCI-H69 [4]; once weekly 30 mg/kg/day, 3 weeks) was 76% (<0.001)/ and the Tumor growth inhibition (NCI-H69 [4]; once weekly 60 mg/kg/day, 4 weeks, after 3 weeks at 30 mg/kg) was 103% (<0.001)/.
